This test deals with T1, HosA (TAP-tagged HosA) (Aspergillus nidulans, UniProt Q5B6M4).
T1 construct: gene ANIA_03806; TAP-tagged HosA expressed in A. nidulans hosA deletion strain under xylPp; IgG-Sepharose pull-down under native conditions, eluted by TEV protease (CBP part of tag kept); enriched fraction, endogenous complex partners not examined
T1 sequence (Q5B6M4 1-482): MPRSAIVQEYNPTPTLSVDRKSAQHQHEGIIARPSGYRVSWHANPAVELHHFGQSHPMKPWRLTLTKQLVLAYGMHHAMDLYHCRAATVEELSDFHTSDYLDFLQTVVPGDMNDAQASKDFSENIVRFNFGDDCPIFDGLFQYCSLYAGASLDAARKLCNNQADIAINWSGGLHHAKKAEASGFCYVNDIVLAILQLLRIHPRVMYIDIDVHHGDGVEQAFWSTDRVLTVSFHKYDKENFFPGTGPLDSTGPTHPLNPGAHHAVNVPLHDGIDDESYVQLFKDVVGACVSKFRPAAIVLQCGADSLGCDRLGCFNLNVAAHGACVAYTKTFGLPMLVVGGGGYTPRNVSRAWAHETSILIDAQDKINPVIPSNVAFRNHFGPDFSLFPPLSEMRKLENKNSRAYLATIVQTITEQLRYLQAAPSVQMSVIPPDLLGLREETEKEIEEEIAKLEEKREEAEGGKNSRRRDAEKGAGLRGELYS
In words: fluorometric HDAC assay, labelled acetylated peptide substrate (EMD Millipore kit). It is filed as biochemical. Particulars: read-out: % inhibition at 100 nM.

Data on one molecule can be found in publication PMC6156440, “A Class 1 Histone Deacetylase as Major Regulator of Secondary Metabolite Production in Aspergillus nidulans” (Frontiers in Microbiology, 2018).

Molecules are shown by their SMILES. Bounds are passed on as bounds.

On to `CC(/C=C/C(=O)NO)=C\[C@@H](C)C(=O)c1ccc(N(C)C)cc1` [TSA, trichostatin A], for which the inhibition at 0.1 µM was over 60%.
